Measurements taken from patent US9561230B2, “Aryl-substituted tricyclic sulfonamides as methionyl aminopeptidase 2 modulators” (Zafgen, Inc., priority 2011, dated 2017).

Each molecule was assayed against T1, recombinant human MetAP2 (Homo sapiens, UniProt P50579) (assay: Inhibition of recombinant human MetAP2 activity (MAS substrate, amino acid oxidase/Amplex red fluorescence)). Conditions: manganese enzyme, 0.75 mM MAS substrate, 30 minutes at 25° C., pH 7.5, 1% DMSO; read-out: Activity (IC50 class, MetAP2 inhibition).
T1 construct: made in house; host or cells: Sf9 insect cells
Assay type: biochemical
Method: Compounds are tested for their capacity to inhibit recombinant human MetAP2 activity using the following assay.
Human recombinant MetAP2 expressed in Sf9 cells followed by affinity purification and EDTA treatment to remove endogenous active site cation was dialysed against MnCl2 to produce the manganese enzyme used in the assay. The assay was carried out for 30 minutes at 25° C. in 50 mM HEPES buffer containing 100 mM NaCl, pH 7.5 the presence of 0.75 mM Methionine-Alanine-Serine (MAS) substrate and 50 μg/ml amino acid oxidase using a dilution of purified MetAP2 giving>3-fold signal:noise. Cleavage of the substrate by MetAP2 and oxidation of free methionine by amino acid oxidase was detected and quantified using fluorescence generated by Amplex red (10-acetyl-3,7-dihydroxyphenoxazine) in combination with horseradish peroxidase which detects H2O2 released during the oxidation step. The fluorescent signal was detected using a multiwell fluorimeter. Compounds were diluted in DMSO prior to addition to assay buffer, the final DMSO concentration in the assay being 1%.
The IC50 is defined as the concentration at which a given compound achieves 50% inhibition of control. IC50 values are calculated using the XLfit software package (version 2.0.5).

T1 sequence (P50579 whole entry): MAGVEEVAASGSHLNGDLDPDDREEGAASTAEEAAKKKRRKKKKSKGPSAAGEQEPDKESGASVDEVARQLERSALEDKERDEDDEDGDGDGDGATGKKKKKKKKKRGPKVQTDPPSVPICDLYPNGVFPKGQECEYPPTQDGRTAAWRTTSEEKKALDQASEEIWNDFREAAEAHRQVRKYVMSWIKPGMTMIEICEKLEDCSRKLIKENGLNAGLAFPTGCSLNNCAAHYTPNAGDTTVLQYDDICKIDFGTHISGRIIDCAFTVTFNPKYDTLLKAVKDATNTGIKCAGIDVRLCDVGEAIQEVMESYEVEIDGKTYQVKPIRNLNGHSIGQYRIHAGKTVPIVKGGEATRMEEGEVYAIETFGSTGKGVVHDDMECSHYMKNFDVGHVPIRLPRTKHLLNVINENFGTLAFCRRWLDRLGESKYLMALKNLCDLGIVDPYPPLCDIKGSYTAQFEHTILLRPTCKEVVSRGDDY

SMILES	IC50 [nM]
CCN(CC)C/C=C\c1cc(F)ccc1S(=O)(=O)Nc1ccc2c(nc3n2CCC3)c1C(=O)O [6-[2-((Z)-3-Diethylaminoprop-1-enyl)-4-fluorobenzenesulfonylamino]-2,3-dihydro-1H-benzo[d]pyrrolo[1,2-a]imidazole-5-carboxylic acid]	> 500
CCN(CC)C/C=C\c1cc(F)ccc1S(=O)(=O)Nc1ccc2c(c1C(=O)O)OC[C@H]1CCN21 [(R)-6-[2-((Z)-3-Diethylaminoprop-1-enyl)-4-fluorobenzenesulfonylamino]-1,2,2a,3-tetrahydro-4-oxa-8b-azacyclobuta[a]naphthalene-5-carboxylic acid]	> 500
O=C(O)c1c(NS(=O)(=O)c2ccccc2)ccc2c1cc1n2CCC1 [7-Benzenesulfonylamino-2,3-dihydro-1H-pyrrolo[1,2-a]indole-8-carboxylic acid]	> 500
CCN(CC)C/C=C\c1cc(F)ccc1S(=O)(=O)Nc1ccc2c(c1C(=O)O)OC[C@H]1CCCN21 [(R)-7-[2-((Z)-3-Diethylaminoprop-1-enyl)-4-fluorobenzenesulfonyl-amino]-2,3,3a,4-tetrahydro-1H-benzo[b]pyrrolo[1,2-d][1,4]oxazine-6-carboxylic acid]	50 to 500

The next lines start with the values.

IC50 [nM]	SMILES
50 to 500	CCN(CC)C/C=C\c1cc(F)ccc1S(=O)(=O)Nc1ccc2c(c1C(=O)O)CCC1CCCN21 (centres unmarked) [7-[2-((Z)-3-Diethylaminoprop-1-enyl)-4-fluorobenzenesulfonylamino]-1,2,3,3a,4,5-hexahydropyrrolo[1,2-a]quinoline-6-carboxylic acid]
50 to 500	CCN(CC)C/C=C\c1cc(F)ccc1S(=O)(=O)Nc1ccc2c(c1C(=O)O)CC1CCCN21 (centres unmarked) [7-[2-((Z)-3-Diethylaminoprop-1-enyl)-4-fluorobenzenesulfonylamino]-2,3,9,9a-tetrahydro-1H-pyrrolo[1,2-a]indole-8-carboxylic acid]
50 to 500	CCN(CC)C/C=C\c1cc(F)ccc1S(=O)(=O)Nc1ccc2c(c1C(=O)O)OC[C@@H]1CCCN21 [(S)-7-[2-((Z)-3-Diethylaminoprop-1-enyl)-4-fluorobenzenesulfonyl-amino]-2,3,3a,4-tetrahydro-1H-benzo[b]pyrrolo[1,2-d][1,4]oxazine-6-carboxylic acid]
< 50	CCN(CC)C/C=C\c1cc(F)ccc1S(=O)(=O)Nc1ccc2c(cc3n2CCC3)c1C(=O)O [7-[2-((Z)-3-Diethylaminoprop-1-enyl)-4-fluorobenzenesulfonylamino]-2,3-dihydro-1H-pyrrolo[1,2-a]indole-8-carboxylic acid]
